These results are taken from US5879716A, “Methods and compositions for topical delivery of benzoyl peroxide” (priority 1993, dated 1999).

Data set [1] can be described thus: Solubility of benzoyl peroxide. The data set is classed as physicochemical.
The conditions of data set [2]: human skin specimens used within 7 to 10 days; cited from earlier work.
For data set [3] the following is noted: cited from earlier work.

Where two headings read alike, the source gives them in different places.

As for `O=C(OOC(=O)c1ccccc1)c1ccccc1` [Benzoyl peroxide, benzoyl peroxide], the solution concentration obtainable entry in data set [1] (acetone and isopropanol) is reported as “up to 10 % by weight”. For the same compound, the “solubility of the drug in the formulation” value in data set [1] (formulations F and G) is “very low solubility”. Besides, the solubility entry was “exceedingly low solubility” in data set [1] (water or normal saline solution); “slightly soluble in alcohols” in data set [3] (alcohols); “soluble in nearly all organic solvents” in data set [3] (organic solvents); “limited solubility in most solvents” in data set [3] (organic solvents, listed as benzoyl peroxide); “slightly soluble in water” in data set [3] (water). Further, the “metabolism during skin absorption” value in data set [2] was “metabolized to benzoic acid and accumulated as such in the receptor fluid”.
